Drawing on patent US20190062305A1, “PYRIDYL OR PYRAZINYL COMPOUNDS CARRYING A METHYL-BOUND ALPHA-AMINO ACID AMIDE GROUP” (ABBVIE DEUTSCHLAND GMBH & CO. KG, priority 2015, published 2019), this text covers EC50, Emax and CLint scaled for 22 compounds.

Structures can show the parent of a compound that is named as a salt. Bounds are passed on as bounds.

The target of one data set is T1, 5-HT2C receptor (Homo sapiens, UniProt P28335).
T1 construct: host or cells: U2OS
Description: Human 5-HT2C functional assay (beta-arrestin2 recruitment, U2OS_HTR2C_β-Arrestin cells). As to conditions: for EC50: beta-arrestin2 recruitment, U2OS_HTR2C_β-Arrestin cells, 1.5 h incubation, read-out: EC50 5-HT2C (potency in functional assay); for Emax: relative efficacy vs response to 10 μM 5-HT or maximal 5-HT effect (100%). Format: cell-based. An outline of the steps: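 U2OS cells expressing HTR2C with β-galactosidase complementation, switched to 1% serum medium 24 h post-plating, were treated next day with compound for 1.5 h; chemiluminescence read. Response expressed as % of 10 µM 5-HT or maximal 5-HT effect; EC50 from 4-parameter variable-slope fit.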

Data set [1] in a line: Metabolic stability in human liver microsomes, unbound intrinsic clearance (Cl int/fu mic). Format: in vitro ADME. To be noted: human, liver microsomes, pH 7.4, human liver microsomes 0.25 mg/mL, 0.5 μM compound, NADPH, read-out: Cl int, mic unb. (h) [l/h/kg] (unbound intrinsic clearance, human). The gist of the method:
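Compound (0.5 µM) was incubated with human liver microsomes (0.25 mg/mL) in pH 7.4 phosphate buffer at 37 °C with 1.0 mM NADPH, sampling from 0–30 min. Depletion was followed by LC-MS/MS, and CLint was derived from first-order t1/2 per mg protein. Microsomal unbound fraction came from 4 h equilibrium dialysis at 37 °C, giving CLint/fu mic.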
(In general: Liver microsomes are vesicles of endoplasmic reticulum, rich in cytochrome P450 enzymes.)

T1 sequence (P28335 33-458): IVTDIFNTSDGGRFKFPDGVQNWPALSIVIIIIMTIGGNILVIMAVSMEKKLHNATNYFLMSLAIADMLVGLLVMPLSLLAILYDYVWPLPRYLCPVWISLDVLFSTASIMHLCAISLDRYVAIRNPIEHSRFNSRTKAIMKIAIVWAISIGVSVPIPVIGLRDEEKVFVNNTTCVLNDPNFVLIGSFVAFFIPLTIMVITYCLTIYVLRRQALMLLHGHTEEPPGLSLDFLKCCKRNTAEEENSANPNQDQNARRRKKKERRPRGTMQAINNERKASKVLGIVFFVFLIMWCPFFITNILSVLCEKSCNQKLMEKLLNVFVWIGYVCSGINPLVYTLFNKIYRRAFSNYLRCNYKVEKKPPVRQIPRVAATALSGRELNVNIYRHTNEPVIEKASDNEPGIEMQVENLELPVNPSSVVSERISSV
T1 sequence (P32121 whole entry partner): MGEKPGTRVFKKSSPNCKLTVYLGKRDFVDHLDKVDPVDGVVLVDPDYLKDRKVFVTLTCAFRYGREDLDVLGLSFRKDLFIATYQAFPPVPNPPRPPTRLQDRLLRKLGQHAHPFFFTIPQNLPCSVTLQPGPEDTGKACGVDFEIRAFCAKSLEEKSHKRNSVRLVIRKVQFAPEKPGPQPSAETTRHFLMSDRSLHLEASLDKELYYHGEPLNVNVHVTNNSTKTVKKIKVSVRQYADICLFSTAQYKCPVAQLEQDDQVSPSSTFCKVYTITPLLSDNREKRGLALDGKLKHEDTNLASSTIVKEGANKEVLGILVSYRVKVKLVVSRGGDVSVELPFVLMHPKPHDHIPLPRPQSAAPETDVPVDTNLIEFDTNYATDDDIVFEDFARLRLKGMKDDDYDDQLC

In general, EC50 refers to the concentration that produces a half-maximal response. In general, Emax refers to the maximal effect, on the per cent scale that the assay sets. In the case of `COc1nc(OCC(C)CC(F)(F)F)c(F)cc1CNC(=O)[C@@H]1CCCN1` (stereo partly drawn) [Example 49, (2S)—N-[[5-Fluoro-2-methoxy-6-(4,4,4-trifluoro-2-methyl-butoxy)-3-pyridyl]-methyl]pyrrolidine-2-carboxamide; Succinic Acid], on 5-HT2C receptor, the EC50 is under 20 nM and the Emax was over 70%. For the same compound, the CLint scaled at 0.5 μM in data set [1] was in the range of 5 to 50 L/h/kg.

Regarding `COc1nc(OC2CCC(F)(F)CC2)c(F)cc1CNC(=O)[C@H]1CCCN1C` [Example 52, (2R)—N-[[6-(4,4-Difluorocyclohexoxy)-5-fluoro-2-methoxy-3-pyridyl]methyl]-1-methyl-pyrrolidine-2-carboxamide Hydrochloride], on 5-HT2C receptor, the EC50 was in the range of 20 to 200 nM and the Emax is over 70%. In addition, the CLint scaled at 0.5 μM in data set [1] was under 5 L/h/kg.

In the case of `COc1nc(OC(C)C(F)(F)C(F)F)c(F)cc1CNC(=O)[C@@H]1CCCN1` (stereo partly drawn) [Example 53, (2S)—N-[[5-Fluoro-2-methoxy-6-(2,2,3,3-tetrafluoro-1-methyl-propoxy)-3-pyridyl]-methyl]pyrrolidine-2-carboxamide; Succinic Acid], at 5-HT2C receptor, the EC50 is under 20 nM and the Emax was over 70%. Also, in data set [1], the CLint scaled at 0.5 μM was under 5 L/h/kg.

On to `COc1nc(OC2CC3C(C2)C3(F)F)c(F)cc1CNC(=O)[C@@H]1CCCN1` (stereo partly drawn) [Example 54, (2S)—N-[[6-[(6,6-Difluoro-3-bicyclo[3.1.0]hexanyl)oxy]-5-fluoro-2-methoxy-3-pyridyl]methyl]pyrrolidine-2-carboxamide 2,2,2-trifluoroacetic Acid], for which, at 5-HT2C receptor, the EC50 was under 20 nM and the Emax was over 70%. Moreover, the CLint scaled at 0.5 μM in data set [1] is under 5 L/h/kg.

Consider `COc1nc(O[C@@H]2CCCC[C@H]2F)c(F)cc1CNC(=O)[C@@H]1CCCN1` [Example 55, (2S)—N-[[5-Fluoro-6-[(1R,2R)-2-fluorocyclohexoxy]-2-methoxy-3-pyridyl]methyl]pyrrolidine-2-carboxamide; 2,2,2-trifluoroacetic Acid], for which, at 5-HT2C receptor, the EC50 is under 20 nM and the Emax is over 70%. The CLint scaled at 0.5 μM in data set [1] is under 5 L/h/kg.

Take `COc1nc(OCC2CC3C(C2)C3(F)F)c(F)cc1CNC(=O)[C@@H]1CCCN1` (stereo partly drawn) [Example 56, (2S)—N-[[6-[(6,6-Difluoro-3-bicyclo[3.1.0]hexanyl)methoxy]-5-fluoro-2-methoxy-3-pyridyl]methyl]pyrrolidine-2-carboxamide; 2,2,2-trifluoroacetic Acid]: at 5-HT2C receptor, the EC50 is under 20 nM and the Emax was over 70%. Besides, in data set [1], the CLint scaled at 0.5 μM lay within 5 to 50 L/h/kg.

With `COc1nc(OC2CCCC(F)(F)C2)c(F)cc1CNC(=O)[C@@H]1CCCN1` (stereo partly drawn) [Example 58, (2S)—N-[[6-(3,3-Difluorocyclohexoxy)-5-fluoro-2-methoxy-3-pyridyl]methyl]-pyrrolidine-2-carboxamide; 2,2,2-trifluoroacetic Acid], at 5-HT2C receptor, the EC50 is under 20 nM and the Emax was over 70%. Besides, the CLint scaled at 0.5 μM in data set [1] is under 5 L/h/kg.

As for `COc1nc(OC2CCC(F)(F)CC2)c(F)cc1CNC(=O)[C@@H]1C[C@@H](C)CN1` [Example 59, (2 S,4R)—N-[[6-(4,4-Difluorocyclohexoxy)-5-fluoro-2-methoxy-3-pyridyl]methyl]-4-methyl-pyrrolidine-2-carboxamide Hydrochloride], on 5-HT2C receptor, the concentration giving a half-maximal response (EC50) is under 20 nM and the Emax lay within 50 to 70%. Also, the CLint scaled at 0.5 μM in data set [1] is under 5 L/h/kg.

`COc1nc(OC2CCC(C(F)(F)F)CC2)c(F)cc1CNC(=O)[C@@H]1C[C@@H](C)CN1` (stereo partly drawn) [Example 60, (2S,4R)—N-[[5-Fluoro-2-methoxy-6-[4-(trifluoromethyl)cyclohexoxy]-3-pyridyl]methyl]-4-methyl-pyrrolidine-2-carboxamide Hydrochloride]: on 5-HT2C receptor, the EC50 lay in the range of 20 to 200 nM and the Emax lay in the range of 50 to 70%. Also, in data set [1], the CLint scaled at 0.5 μM lay in the range of 50 to 500 L/h/kg.

Take `COc1nc(OC2CCC(F)(F)CC2)c(F)cc1CNC(=O)[C@@H]1C[C@@H](C)CN1C` [Example 61, (2S,4R)—N-[[6-(4,4-Difluorocyclohexoxy)-5-fluoro-2-methoxy-3-pyridyl]methyl]-1,4-dimethyl-pyrrolidine-2-carboxamide Hydrochloride]: at 5-HT2C receptor, the EC50 lay in the range of 20 to 200 nM and the Emax was over 70%. The CLint scaled at 0.5 μM in data set [1] lay in the range of 5 to 50 L/h/kg.

For the compound `COc1nc(OC2CCC(C(F)(F)F)CC2)c(F)cc1CNC(=O)[C@@H]1C[C@@H](C)CN1C` (stereo partly drawn) [Example 62, (2S,4R)—N-[[5-Fluoro-2-methoxy-6-[4-(trifluoromethyl)cyclohexoxy]-3-pyridyl]methyl]-1,4-dimethyl-pyrrolidine-2-carboxamide Hydrochloride], on 5-HT2C receptor, the EC50 lay within 20 to 200 nM and the Emax was over 70%. In addition, in data set [1], the CLint scaled at 0.5 μM fell in the range of 50 to 500 L/h/kg.

As to `COc1nc(OCC2(C(F)(F)F)CC2)c(F)cc1CNC(=O)[C@@H]1CCCN1C` [Example 63, (2S)—N-[[5-Fluoro-2-methoxy-6-[[1-(trifluoromethyl)cyclopropyl]methoxy]-3-pyridyl]methyl]-1-methyl-pyrrolidine-2-carboxamide Hydrochloride], on 5-HT2C receptor, the EC50 was under 20 nM and the Emax was over 70%. For the same compound, the CLint scaled at 0.5 μM in data set [1] was under 5 L/h/kg.

On to `Cc1nc(OC2CCC(C(F)(F)F)CC2)ccc1CNC(=O)C1CCCN1` [Example 65, (S)—N-((2-Methyl-6-(((1R,4S)-4-(trifluoromethyl)cyclohexyl)oxy)pyridin-3-yl)methyl)pyrrolidine-2-carboxamide], for which, on 5-HT2C receptor, the EC50 lay within 20 to 200 nM and the Emax fell in the range of 50 to 70%. Moreover, in data set [1], the CLint scaled at 0.5 μM was under 5 L/h/kg.

In the case of `COc1nc(OC2CCC(C(F)F)CC2)c(F)cc1CNC(=O)[C@@H]1CCCN1` (stereo partly drawn) [Example 66, (2S)—N-[[6-[4-(Difluoromethyl)cyclohexoxy]-5-fluoro-2-methoxy-3-pyridyl]methyl]-pyrrolidine-2-carboxamide hydrochloride], on 5-HT2C receptor, the EC50 was under 20 nM and the Emax is over 70%. Also, the CLint scaled at 0.5 μM in data set [1] was 5 to 50 L/h/kg.

Turning to `COc1nc(OCC2CC2(F)F)c(F)cc1CNC(=O)[C@@H]1CCCN1C` (stereo partly drawn) [Example 68, (2S)—N-[[6-[(2,2-Difluorocyclopropyl)methoxy]-5-fluoro-2-methoxy-3-pyridyl]-methyl]-1-methyl-pyrrolidine-2-carboxamide Hydrochloride], on 5-HT2C receptor, the EC50 is under 20 nM and the Emax is over 70%. In addition, in data set [1], the CLint scaled at 0.5 μM is under 5 L/h/kg.

For `COc1nc(OC2CC(F)(F)C2)c(F)cc1CNC(=O)[C@@H]1CCCN1C` [Example 71, (2S)—N-[[6-(3,3-Difluorocyclobutoxy)-5-fluoro-2-methoxy-3-pyridyl]methyl]-1-methyl-pyrrolidine-2-carboxamide Hydrochloride], at 5-HT2C receptor, the EC50 is under 20 nM and the Emax is over 70%. For the same compound, the CLint scaled at 0.5 μM in data set [1] was under 5 L/h/kg.

Regarding `COc1nc(OC2CCC(C(C)(F)F)CC2)c(F)cc1CNC(=O)[C@@H]1CCCN1` (stereo partly drawn) [Example 72, (2S)—N-((6-((4-(1,1-Difluoroethyl)cyclohexyl)oxy)-5-fluoro-2-methoxypyridin-3-yl)methyl)pyrrolidine-2-carboxamide 2,2,2-trifluoroacetate], on 5-HT2C receptor, the EC50 is under 20 nM and the Emax was over 70%. Moreover, in data set [1], the CLint scaled at 0.5 μM lay within 5 to 50 L/h/kg.

Regarding `COc1nc(OC2CCC(CF)CC2)c(F)cc1CNC(=O)[C@@H]1CCCN1` (stereo partly drawn) [Example 75, (2S)—N-[[5-fluoro-6-[4-(fluoromethyl)cyclohexoxy]-2-methoxy-3-pyridyl]methyl]-pyrrolidine-2-carboxamide; 2,2,2-trifluoroacetic Acid], at 5-HT2C receptor, the EC50 was under 20 nM and the Emax is over 70%. Further, the CLint scaled at 0.5 μM in data set [1] was in the range of 5 to 50 L/h/kg.

As for `COc1nc(OCC2(C(F)(F)F)CC2)c(F)cc1CN(C)C(=O)[C@@H]1CCCN1` [Example 76, (2S)—N-[[5-Fluoro-2-methoxy-6-[[1-(trifluoromethyl)cyclopropyl]methoxy]-3-pyridyl]methyl]-N-methyl-pyrrolidine-2-carboxamide Hydrochloride], at 5-HT2C receptor, the 50% effective concentration (EC50) was under 20 nM and the Emax was over 70%. The CLint scaled at 0.5 μM in data set [1] was under 5 L/h/kg.

Consider `COc1nc(OCC2CC2(F)F)c(F)cc1CN(C)C(=O)[C@@H]1CCCN1` (stereo partly drawn) [Example 77, (2S)—N-[[6-[(2,2-Difluorocyclopropyl)methoxy]-5-fluoro-2-methoxy-3-pyridyl]-methyl]-N-methyl-pyrrolidine-2-carboxamide Hydrochloride], for which, on 5-HT2C receptor, the EC50 was under 20 nM and the Emax is over 70%. Also, the CLint scaled at 0.5 μM in data set [1] is under 5 L/h/kg.

As for `COc1nc(OC2CC(F)(F)C2)c(F)cc1CN(C)C(=O)[C@@H]1CCCN1` [Example 78, (2S)—N-[[6-(3,3-Difluorocyclobutoxy)-5-fluoro-2-methoxy-3-pyridyl]methyl]-N-methyl-pyrrolidine-2-carboxamide Hydrochloride], at 5-HT2C receptor, the EC50 was under 20 nM and the Emax was over 70%. In data set [1], the CLint scaled at 0.5 μM is under 5 L/h/kg.

Consider `COc1nc(OC2CCC(C(F)(F)F)CC2)c(F)cc1CNC(=O)[C@H]1NC[C@H]1C` (stereo partly drawn) [Example 79, (2S,3R)—N-[[5-Fluoro-2-methoxy-6-[4-(trifluoromethyl)cyclohexoxy]-3-pyridyl]-methyl]-3-methyl-azetidine-2-carboxamide; Fumaric Acid], for which, on 5-HT2C receptor, the EC50 lay within 20 to 200 nM and the Emax fell in the range of 30 to 50%. The CLint scaled at 0.5 μM in data set [1] lay in the range of 50 to 500 L/h/kg.
